According to ChEMBL document CHEMBL1144554, “In vitro cytotoxicity evaluation of some substituted isatin derivatives” (Bioorg Med Chem, 2007):
pIC50: −log10 of the molar value. The source made the active and inactive calls. No cut-off for these calls is given here.

What was measured:
U-937 = assay: Cytotoxicity against human U937 cells; format: ADME, cell-based
Jurkat = assay: Cytotoxicity against human Jurkat cells; format: cell-based
HCT-116 = assay: Cytotoxicity against human HCT116 cells; format: cell-based
MDA-MB-231 = assay: Cytotoxicity against human MDA-MB-231 cells; format: cell-based
MCF7 = assay: Cytotoxicity against human MCF7 cells; format: cell-based
PC-3 = assay: Cytotoxicity against human PC3 cells; format: cell-based
[1] = target: Cyclin-dependent kinase 2 (Homo sapiens) (UniProt P24941); assay: Inhibition of CDK2 at 100 uM
Caspase-7 (Homo sapiens) = target: T1, Caspase-7 (Homo sapiens) (UniProt P55210); assay: Activation of caspase 7 in Jurkat cells after 5 hrs by apoptosis assay; format: cell-based
T1 sequence (whole entry): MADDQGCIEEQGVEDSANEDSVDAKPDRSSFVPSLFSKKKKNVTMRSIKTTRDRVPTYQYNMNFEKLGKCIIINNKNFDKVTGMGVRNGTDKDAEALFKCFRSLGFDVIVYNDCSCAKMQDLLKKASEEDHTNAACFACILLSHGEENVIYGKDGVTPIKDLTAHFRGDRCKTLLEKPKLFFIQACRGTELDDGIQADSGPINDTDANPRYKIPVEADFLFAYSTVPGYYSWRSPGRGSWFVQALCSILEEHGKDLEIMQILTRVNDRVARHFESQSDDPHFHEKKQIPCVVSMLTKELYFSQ

Caspase-3 (Homo sapiens) = target: T2, Caspase-3 (Homo sapiens) (UniProt P42574); assay: Activation of caspase 3 in Jurkat cells after 5 hr by apoptosis assay; format: cell-based
T2 sequence (whole entry): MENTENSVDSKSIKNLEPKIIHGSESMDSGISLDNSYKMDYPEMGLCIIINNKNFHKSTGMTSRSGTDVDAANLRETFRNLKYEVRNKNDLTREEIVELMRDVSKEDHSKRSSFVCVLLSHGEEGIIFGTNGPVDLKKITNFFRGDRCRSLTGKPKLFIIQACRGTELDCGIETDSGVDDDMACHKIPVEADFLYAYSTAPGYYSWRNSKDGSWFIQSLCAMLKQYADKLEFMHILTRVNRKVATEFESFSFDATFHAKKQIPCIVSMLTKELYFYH

| SMILES | pIC50 (U-937) | other results |
| --- | --- | --- |
| O=C1Nc2c(Br)cccc2C1=O | 4.08 |  |
| COc1ccc2c(c1)C(=O)C(=O)N2 [5-METHOXYISATIN] | 3.38 |  |
| O=C1Nc2ccc(Br)cc2C1=O | 4.19 |  |
| O=C1Nc2c(cc(Br)cc2[N+](=O)[O-])C1=O | 3.59 |  |
| O=C1Nc2ccc([N+](=O)[O-])cc2C1=O [5-NITROISATIN] | 3.88 |  |
| O=C1Nc2cccc(Br)c2C1=O | 3.67 |  |
| O=C1Nc2c(Br)cc([N+](=O)[O-])cc2C1=O | < 3.43 |  |
| O=C1Nc2cc(Br)c(Br)cc2C1=O | 4.94 | pIC50 (Jurkat): 4.69; pIC50 (HCT-116): 4.43; pIC50 (MDA-MB-231): 4.38; pIC50 (MCF7): 4.69; pIC50 (PC-3): 4.39 |
| CN1C(=O)C(=O)c2ccccc21 | 3.62 |  |
| O=C1Nc2c(I)cc(I)cc2C1=O | 5.11 | pIC50 (Jurkat): 4.68; pIC50 (HCT-116): 4.62; pIC50 (MDA-MB-231): 4.38; pIC50 (MCF7): 4.74; pIC50 (PC-3): 4.14 |
| O=C1Nc2ccc(I)cc2C1=O [5-IODOISATIN] | 4.27 |  |
| O=C1Nc2c(Br)cc(Br)cc2C1=O |  | inhibition [1]: 44% |
| O=C1Nc2cc(Br)ccc2C1=O | 4.13 |  |
| O=C1Nc2c(Br)cc(Br)cc2/C1=N/c1ccccc1 | 4.86 |  |
| Oc1[nH]c2ccccc2c1/N=N/c1ccccc1 | < 3.68 |  |
| O=C1Nc2c(cc(Br)c(Br)c2Br)C1=O | 5.17 | pIC50 (Jurkat): 5.24; pIC50 (HCT-116): 4.80; pIC50 (MDA-MB-231): 4.66; pIC50 (MCF7): 4.88; Activity (Caspase-7 (Homo sapiens)): Active; pIC50 (PC-3): 4.59; Activity (Caspase-3 (Homo sapiens)): Active |
| O=C1Nc2cc(Br)c([N+](=O)[O-])cc2C1=O | 4.77 |  |
| O=C1Nc2ccccc2C1=O [ISATIN] | 3.25 |  |
| O=C1Nc2ccc(F)cc2C1=O [5-FLUOROISATIN] | 4.01 |  |
